Assays:
[1] = test system: mRNA expressed from the genes (A) to (D) in rat liver; assay: Behavior of genes (mRNA expression level, oligo-DNA microarray) in rat liver after 28-day oral administration; type: in vivo
How it was run: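 Groups of four male F344 SPF rats aged 5 weeks are gavaged once a day for 28 days with test chemical in solvent or with solvent alone at equal volume. Total RNA comes from liver taken on day 28. Fold change of 1.5 or 1/1.5 versus control, directionally consistent, defines significance.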

liver = settings: in vivo; cited from earlier work
rodent = settings: in vivo; cited from earlier work
[2] = gene group (A), Unigene No. Rn.167075
[3] = gene group (C), Unigene No. Rn.120914

ClC1=C(Cl)[C@]2(Cl)[C@@H]3[C@@H]4C[C@@H]([C@H]5O[C@@H]45)[C@@H]3[C@@]1(Cl)C2(Cl)Cl [TS017, Dieldrin]
Behavior of gene caused by administration of chemical substance, Gene No. 4846 ([1]; gene group (A), Unigene No. Rn.144554): − | Behavior of gene caused by administration of chemical substance, Gene No. 2026 [1, 2]: − | Behavior of gene caused by administration of chemical substance, Gene No. 4218 [1, 2]: − | Behavior of gene caused by administration of chemical substance, Gene No. 6182 ([1]; gene group (A), Unigene No. Rn.5834): + | Behavior of gene caused by administration of chemical substance, Gene No. 5600 ([1]; gene group (A), Unigene No. Rn.9836): − | Behavior of gene caused by administration of chemical substance, Gene No. 1494 ([1]; gene group (B), Unigene No. Rn.1430): + | Behavior of gene caused by administration of chemical substance, Gene No. 2045 ([1]; gene group (B), Unigene No. Rn.19329): + | Behavior of gene caused by administration of chemical substance, Gene No. 2203 ([1]; gene group (B), Unigene No. Rn.21240): + | Behavior of gene caused by administration of chemical substance, Gene No. 533 ([1]; gene group (C), Unigene No. Rn.106184): + | Behavior of gene caused by administration of chemical substance, Gene No. 725 ([1]; gene group (C), Unigene No. Rn.108075): − | Behavior of gene caused by administration of chemical substance, Gene No. 1163 ([1]; gene group (C), Unigene No. Rn.11766): − | Behavior of gene caused by administration of chemical substance, Gene No. 4973 ([1]; gene group (C), Unigene No. Rn.118529): − | Behavior of gene caused by administration of chemical substance, Gene No. 4095 ([1]; gene group (C), Unigene No. Rn.119024): − | Behavior of gene caused by administration of chemical substance, Gene No. 1334 [1, 3]: − | Behavior of gene caused by administration of chemical substance, Gene No. 6620 [1, 3]: − | Behavior of gene caused by administration of chemical substance, Gene No. 6303 ([1]; gene group (C), Unigene No. Rn.123063): − | Behavior of gene caused by administration of chemical substance, Gene No. 5878 ([1]; gene group (C), Unigene No. Rn.143213): − | Behavior of gene caused by administration of chemical substance, Gene No. 1131 ([1]; gene group (C), Unigene No. Rn.144946): − | Behavior of gene caused by administration of chemical substance, Gene No. 1562 ([1]; gene group (C), Unigene No. Rn.14744): − | Behavior of gene caused by administration of chemical substance, Gene No. 1741 ([1]; gene group (C), Unigene No. Rn.1647): − | Behavior of gene caused by administration of chemical substance, Gene No. 893 ([1]; gene group (C), Unigene No. Rn.164817): − | Behavior of gene caused by administration of chemical substance, Gene No. 6026 ([1]; gene group (C), Unigene No. Rn.167685): − | Behavior of gene caused by administration of chemical substance, Gene No. 154 ([1]; gene group (C), Unigene No. Rn.185941): − | Behavior of gene caused by administration of chemical substance, Gene No. 1993 ([1]; gene group (C), Unigene No. Rn.18728): − | Behavior of gene caused by administration of chemical substance, Gene No. 813 ([1]; gene group (C), Unigene No. Rn.201760): − | Behavior of gene caused by administration of chemical substance, Gene No. 2494 ([1]; gene group (C), Unigene No. Rn.23969): − | Behavior of gene caused by administration of chemical substance, Gene No. 2546 ([1]; gene group (C), Unigene No. Rn.24561): − | Behavior of gene caused by administration of chemical substance, Gene No. 3776 ([1]; gene group (C), Unigene No. Rn.43232): − | Behavior of gene caused by administration of chemical substance, Gene No. 3929 ([1]; gene group (C), Unigene No. Rn.4620): − | Behavior of gene caused by administration of chemical substance, Gene No. 1119 ([1]; gene group (C), Unigene No. Rn.9757): − | Behavior of gene caused by administration of chemical substance, Gene No. 6742 ([1]; gene group (C), Unigene No. Rn.9779): − | Behavior of gene caused by administration of chemical substance, Gene No. 5634 ([1]; gene group (C), Unigene No. Rn.9862): − | Behavior of gene caused by administration of chemical substance, Gene No. 5726 ([1]; gene group (D), Unigene No. Rn.9939): − | Liver carcinogenicity (liver): Cr− | Carcinogenicity (rodent): C+
